Experimental data taken from the NIST ThermoML archive (doi:10.1016/j.jct.2017.11.012).
Numbers after ± are expanded uncertainties.

Settings: for mass density: 101.33 kPa, Liquid, Buoyancy - hydrostatic balance with magnetic suspension - one sinker

CCCCCCCn1cc[n+](C)c1.[Br-] [1-heptyl-3-methylimidazolium bromide]
Settings | mass density [kg/m3]
288.61 K | 1204.51 ± 0.76
293.46 K | 1200.12 ± 0.76
298.41 K | 1196.78 ± 0.76
303.25 K | 1193 ± 0.76
308.21 K | 1189.59 ± 0.76
313.68 K | 1184.48 ± 0.76
318.07 K | 1180.84 ± 0.76
323.13 K | 1177.36 ± 0.76
328.04 K | 1173.42 ± 0.76
333.16 K | 1169.7 ± 0.76
338.28 K | 1165.8 ± 0.76
342.93 K | 1162.61 ± 0.75
348 K | 1159.27 ± 0.75
353.15 K | 1155.57 ± 0.75
358.44 K | 1151.81 ± 0.75
361.83 K | 1149.33 ± 0.75

surface tension liquid-gas [mN/m]
Settings | Ring tensiometer | Wilhelmy Plate
313.61 K | 34.83 ± 0.55 | 34.57 ± 0.15
317.99 K | 34.5 ± 0.55 | –
318.02 K | – | 34.35 ± 0.15
323.11 K | 34.21 ± 0.54 | –
323.13 K | – | 34.09 ± 0.15
328.07 K | 34.3 ± 0.55 | –
328.11 K | – | 33.89 ± 0.15
333.19 K | 33.55 ± 0.54 | –
333.24 K | – | 33.58 ± 0.14
338.33 K | 33.25 ± 0.54 | 33.3 ± 0.14
341.81 K | 33.17 ± 0.53 | –
341.91 K | – | 33.14 ± 0.14
347.18 K | 33.07 ± 0.53 | –
347.23 K | – | 32.89 ± 0.14
353.09 K | 32.56 ± 0.53 | –
353.14 K | – | 32.61 ± 0.14
358.31 K | 32.41 ± 0.53 | –
358.37 K | – | 32.4 ± 0.14
361.72 K | 32.03 ± 0.52 | –
361.8 K | – | 32.17 ± 0.14

CCCCCCCCCn1cc[n+](C)c1.[Br-] [1-methyl-3-nonylimidazolium bromide]
Settings | mass density [kg/m3]
293.53 K | 1151.11 ± 0.56
298.66 K | 1147.53 ± 0.56
303.27 K | 1143.87 ± 0.56
308.55 K | 1140.39 ± 0.56
313.46 K | 1136.5 ± 0.56
318.04 K | 1132.93 ± 0.56
323.21 K | 1129.22 ± 0.56
327.91 K | 1125.75 ± 0.56
333.09 K | 1122.06 ± 0.56
338.45 K | 1118.47 ± 0.56
342.75 K | 1115.49 ± 0.56
348.28 K | 1112.09 ± 0.56
353.51 K | 1108.37 ± 0.56
358.3 K | 1105.2 ± 0.56
361.69 K | 1103.16 ± 0.56

surface tension liquid-gas [mN/m]
Settings | Ring tensiometer | Wilhelmy Plate
298.64 K | 30.63 ± 0.62 | –
303.27 K | 30.41 ± 0.62 | –
303.28 K | – | 30.12 ± 0.08
308.54 K | 30.17 ± 0.62 | –
308.55 K | – | 29.91 ± 0.08
313.44 K | 29.95 ± 0.62 | 29.73 ± 0.08
318.03 K | 29.77 ± 0.62 | 29.54 ± 0.08
323.2 K | 29.62 ± 0.62 | –
323.23 K | – | 29.3 ± 0.08
327.94 K | 29.41 ± 0.62 | –
327.97 K | – | 29.1 ± 0.08
333.09 K | 29.19 ± 0.61 | –
333.11 K | – | 28.86 ± 0.08
338.49 K | 28.72 ± 0.61 | 28.59 ± 0.08
342.76 K | 28.51 ± 0.61 | –
342.8 K | – | 28.39 ± 0.08
348.23 K | 28.46 ± 0.61 | –
348.31 K | – | 28.18 ± 0.08
352.32 K | 27.98 ± 0.61 | –
352.4 K | – | 27.99 ± 0.08
358.25 K | 27.94 ± 0.61 | –
358.31 K | – | 27.75 ± 0.08
361.6 K | 27.82 ± 0.6 | –
361.68 K | – | 27.59 ± 0.08
